Test results taken from paper PMC10766610, “DCAF1-based PROTACs with activity against clinically validated targets overcoming intrinsic- and acquired-degrader resistance” (Nature Communications, 2024).
pKd: −log10 of the molar value. Read-outs that look alike come from different tables or passages of the source.

What was measured:
[1] = molecular target: T1, DCAF1(WDR) (Homo sapiens, UniProt Q9Y4B6, E1398S); test: SPR, surface immobilized DCAF1(WDR), binary compound binding
T1 construct: His6 (C); made in house; host or cells: Sf9 insect cells (baculovirus), co-expressed with BirA
T1 sequence (Q9Y4B6 1073-1399 E1398S): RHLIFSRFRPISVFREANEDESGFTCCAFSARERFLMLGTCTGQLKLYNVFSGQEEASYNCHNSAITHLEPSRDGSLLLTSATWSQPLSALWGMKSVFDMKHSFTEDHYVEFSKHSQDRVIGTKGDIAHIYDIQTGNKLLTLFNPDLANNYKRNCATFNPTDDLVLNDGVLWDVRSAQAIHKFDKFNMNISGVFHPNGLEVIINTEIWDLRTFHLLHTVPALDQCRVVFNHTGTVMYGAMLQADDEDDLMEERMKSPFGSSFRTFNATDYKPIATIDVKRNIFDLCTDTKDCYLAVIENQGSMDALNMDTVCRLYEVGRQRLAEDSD

[2] = Viability by FSC/SSC gate (flow cytometry) in TMD8 BTK-GFP/mCh cells; format: cell-based, human; details: human, TMD8 BTK-GFP/mCh cells, TMD8 BTK-GFP/mCh, 24 h
Protocol: For flow cytometry measurements, 25,000 exponentially growing TMD8 BTK-GFP/mCh cells were plated in 100 μL of each well of a 96-well plate and grown for 24 h. Cells were then dosed with corresponding compounds and doses from 10 mM DMSO stock for 24 h, after which GFP and mCherry fluorescence was read with a Beckmann Coulter Cytoflex. For competition experiment, both compounds were added at the same time and dosed for 24 h. Cells were gated based on Forward & Side Scatter and selection for Single cells using SSC-A vs. SSC-H. Further, the population of viable cells was defined by the forward & side-scatter characteristics of DMSO-treated cells. […] Effects on viability were measured by the reduction of the percentage of cells included in this viable-population gate with increasing doses of compound tested. Degradation of BTK was calculated based on subtracting background (BG) fluorescence of parental TMD8 signal via (GFP-BG)/(mCherry-BG) of viable cells. Median ratios of three technical (different wells) replicates were used to calculate daily averages. Each compound dose–response was generated via three biological replicates (different days of experiment). Degradation curve parameters (DC50 & Abs. DC50 & max. Deg) were extracted using GraphPad Prism’s 4-parameter logistic curve fitting.
The viability window was determined by measuring the GI50 of viability based on the percentage of cells included in the viable gate and comparing it to the DC50 of degradation. The fold-change difference describing this window is [GI50 Viability / DC50 Degradation], where values above 1 indicate a positive (lower DC50 degradation than AC50 viability) window.

[3] = molecular target: T2, BTK (Homo sapiens, UniProt Q06187); test: BTK-GFP degradation by flow cytometry in TMD8 BTK-GFP/mCh cells; format: cell-based; set-up: performed with full-length BTK and endogenous DCAF1; expressed in transfected cells; host or cells: TMD8 cells, lentiviral, blasticidin-selected (TMD8 BTK-GFP/mCh); details: for DC50 / max. BTK degradation (%): 24 h
T2 sequence (Q06187 2-659 limits assumed): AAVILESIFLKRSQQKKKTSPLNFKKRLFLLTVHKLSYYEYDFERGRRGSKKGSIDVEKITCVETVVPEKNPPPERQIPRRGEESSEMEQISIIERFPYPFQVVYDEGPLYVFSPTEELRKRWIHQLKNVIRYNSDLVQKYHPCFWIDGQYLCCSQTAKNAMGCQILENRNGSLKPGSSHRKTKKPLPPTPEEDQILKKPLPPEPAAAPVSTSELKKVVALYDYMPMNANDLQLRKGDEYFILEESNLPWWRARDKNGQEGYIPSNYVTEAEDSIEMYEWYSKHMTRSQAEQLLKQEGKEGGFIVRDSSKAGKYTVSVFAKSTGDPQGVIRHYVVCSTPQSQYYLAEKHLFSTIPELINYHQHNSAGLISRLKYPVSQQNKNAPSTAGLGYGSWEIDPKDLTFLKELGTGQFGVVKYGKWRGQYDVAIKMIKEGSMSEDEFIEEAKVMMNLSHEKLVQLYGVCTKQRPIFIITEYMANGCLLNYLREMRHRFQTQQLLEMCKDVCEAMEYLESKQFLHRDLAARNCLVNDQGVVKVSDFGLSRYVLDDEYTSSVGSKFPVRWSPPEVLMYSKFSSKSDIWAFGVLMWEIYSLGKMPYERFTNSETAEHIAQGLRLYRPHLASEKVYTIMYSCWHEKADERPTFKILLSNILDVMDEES
Protocol: The bicistronic pLenti6 BTK-GFP-chysel-mCHERRY expression vector was cloned as described[92] using Gateway cloning with a pENTR-BTK plasmid lacking a STOP codon. TMD8 cells were then infected with lentiviral particles from this vector as described above and stably transfected cells were selected with blasticidin at a concentration of 10 μg/mL referred to as TMD8 BTK-GFP/mCh cells.
For flow cytometry measurements, 25,000 exponentially growing TMD8 BTK-GFP/mCh cells were plated in 100 μL of each well of a 96-well plate and grown for 24 h. Cells were then dosed with corresponding compounds and doses from 10 mM DMSO stock for 24 h, after which GFP and mCherry fluorescence was read with a Beckmann Coulter Cytoflex. For competition experiment, both compounds were added at the same time and dosed for 24 h. Cells were gated based on Forward & Side Scatter and selection for Single cells using SSC-A vs. SSC-H. Further, the population of viable cells was defined by the forward & side-scatter characteristics of DMSO-treated cells. To confirm cells outside of this population as non-viable, cells were plated and treated for 24 h, washed with PBS and stained for 30 min with two markers of early (Annexin-V) and late (LIVE/DEAD) apoptosis. Effects on viability were measured by the reduction of the percentage of cells included in this viable-population gate with increasing doses of compound tested. Degradation of BTK was calculated based on subtracting background (BG) fluorescence of parental TMD8 signal via (GFP-BG)/(mCherry-BG) of viable cells. Median ratios of three technical (different wells) replicates were used to calculate daily averages. Each compound dose–response was generated via three biological replicates (different days of experiment). Degradation curve parameters (DC50 & Abs. DC50 & max. Deg) were extracted using GraphPad Prism’s 4-parameter logistic curve fitting.

[4] = molecular target: T2, BTK; test: Immunoblot of endogenous BTK in TMD8 cells; format: cell-based; set-up: performed with full-length BTK and endogenous DCAF1; expressed in transfected cells; host or cells: TMD8 cells, lentiviral, blasticidin-selected (TMD8 BTK-GFP/mCh)
Protocol: Whole cell lysates for immunoblotting were prepared by pelleting cells at 4 °C (300 g) for 3 min. Cell pellets were then washed 1x with PBS and resuspended in RIPA lysis buffer (VWR, cat # 97063-270) supplemented with protease (Thermo Scientific, cat # A32955) and phosphatase (Thermo Scientific, cat # A32957) inhibitor tablets. Lysates were clarified at 16,000 × g for 15 min at 4 °C prior to quantification by Lowry assay (Bio-Rad cat # 5000113 and cat # 5000114). Whole-cell lysates were loaded into 4–20% Criterion TGX Precast 18 well gels (Bio-Rad, cat # 5671094) and separated by electrophoreses at 120 V for 1 h. The gels were transferred to a nitrocellulose membrane using the Trans-Blot Turbo (Bio-Rad) for 7 min and then blocked for 1 h at room temperature in Odyssey blocking buffer (LICOR Biosciences, cat # 927-50000). Membranes were probed with the appropriate primary antibodies (diluted 1:1000) overnight at 4 °C in 20% Odyssey blocking buffer in 1x TBST. Membranes were washed three times with 1x TBST (5 min per wash), and then incubated with IRDye goat anti-mouse (LICOR, cat # 926-32210) or goat anti-rabbit (LICOR, cat # 926-32211) secondary antibody diluted 1:10,000 in 20% Odyssey blocking buffer for 1 h at room temperature. After three 5-min washes with 1x TBST, the immunoblots were visualized using the ODYSSEY Infrared Imaging System (LICOR). Alternatively, SDS-PAGE resolved proteins were transferred to a PVDF membrane using a wet blotting system (Invitrogen). Membranes were blocked in 5% Milk-PBS-Tween 20 for 1 h and incubated with primary antibody over night at 4 °C. Secondary antibodies (secondary antibody: anti-rabbit, goat pAb to Rb-IgG (Abcam, #7090); secondary antibody: anti-mouse, sheep IgG HRP-linked (GE healthcare, #NA931V)) were incubated for 1 h at room temperature (RT) before blots were developed on film using the detection kit SuperSignal West Femto Maximum Sensitivity Substrate (Thermo Fisher, #34096).

[5] = Fig. 6b, SPR, read-out: KD DCAF1
[6] = Fig. 6b, read-out: DC50 BTK degradation (24h)
[7] = TMD8 BTK-GFP/mCh, read-out: Absolute DC50 BTK-Degradation
[8] = TMD8 BTK-GFP/mCh, read-out: DC50 BTK-Degradation

Structure (SMILES)	pKd ([1]; binary, compound alone, spread in brackets, read-out: SPR KD)	pKd [1, 5]	GI50 at 24 h ([2]; read-out: Abs GI50) [µM]	GI50 at 24 h ([2]; read-out: GI50) [µM]	max. BTK degradation (24h, %) ([3]; Fig. 6b) [%]	DC50 [3, 6] [µM]	max. BTK degradation (%) ([3]; TMD8 BTK-GFP/mCh)	DC50 [3, 7] [µM]	DC50 [3, 8] [µM]	concentration giving significant reduction of BTK ([4]; TMD8, 6 h dose-response, immunoblot) [µM]	GI50 at 24 h ([2]; read-out: GI50 viability) [µM]	DC50 ([3]; TMD8 BTK-GFP/mCh, read-out: DC50 BTK-GFP degradation) [µM]	BTK degradation potency ([4]; TMD8, 24 h, immunoblot)	BTK reduction by control treatment ([4]; TMD8, 1 µM, 1, 3, 6 and 24 h)
COc1cc(-c2cn(C)c(=O)c3cnccc23)c(OC)cc1CN1CCC(OCCCCCC(=O)N2CCN(c3ccc4c(NCCN)nc(C5(c6ccc(Cl)cc6)CCCCC5)nc4c3)CC2)CC1 [DBr-1]	7.89	–	–	–	–	–	–	–	–	–	–	–	–	–
Cc1c(NC(=O)c2ccc(C(C)(C)O)cc2F)cc(F)cc1-c1ncnc2[nH]c(-c3ccc(CNCCOCCOCCOCCOCCOCCOCCOCCOCCOCCOCCOCCOCCC(=O)N4CCN(c5ccc6c(NCCN)nc(C7(c8ccc(Cl)cc8)CCCCC7)nc6c5)CC4)cc3)cc12 [DBt-5]	–	7.05	4.12	4.24	100	0.05	100	0.05	0.05	–	–	–	–	–
Cc1c(NC(=O)N2CC(O)(CC(C)(C)C)C2)cc(F)cc1-c1ncnc2[nH]c(-c3cnn(CC(=O)N4CCC5(CC4)CN(CCNC(=O)CCCC(=O)N4CCN(c6ccc7c(NCCN)nc(C8(c9ccc(Cl)cc9)CCCCC8)nc7c6)CC4)CCO5)c3)cc12 [DBt-10]	–	6.83	–	> 25	94	0.137	94	0.149	0.137	2.5	–	–	–	–
Cc1nc(Nc2ncc(C(=O)Nc3c(C)cccc3Cl)s2)cc(N2CCC(OC3CCN(CCCCCCCC(=O)N4CCN(c5ccc6c(NCCN)nc(C7(c8ccc(Cl)cc8)CCCCC7)nc6c5)CC4)CC3)CC2)n1 [DDa-1]	–	–	1.2	–	–	–	–	0.146	0.0913	–	1.2	0.09	sub-µM potency	–
CC(=O)N1CCN(c2ccc3c(NCCN)nc(C4(c5ccc(Cl)cc5)CCCCC4)nc3c2)CC1 [compound 13]	–	–	5.22	5.04	–	–	0	–	> 25	–	–	–	–	did not reduce BTK at any time points
